Laboratory results: the NIST ThermoML archive (doi:10.1021/je100476h)

Assay: mn = molality of the nth substance listed, in mol/kg
Details: 101 kPa, Liquid

NCC(=O)O [2-aminoacetic acid] + O
mass density [kg/m3]
Details	m1 = 0.1429	m1 = 0.2709	m1 = 0.3812	m1 = 0.4102	m1 = 0.4801	m1 = 0.5732
288.15 K	1003.76	1007.85	1011.33	1012.23	1014.4	1017.27
298.15 K	1001.56	1005.54	1008.93	1009.8	1011.92	1014.71
308.15 K	998.477	1002.4	1005.73	1006.59	1008.66	1011.41
318.15 K	994.636	998.503	1001.79	1002.63	1004.67	1007.37

NCCCC(=O)O [4-aminobutanoic acid] + O
mass density [kg/m3]
Details	m1 = 0.04607	m1 = 0.09549	m1 = 0.1155	m1 = 0.1652	m1 = 0.1882	m1 = 0.2277
288.15 K	1000.54	1002.05	1002.65	1004.13	1004.83	1005.99
298.15 K	998.428	999.894	1000.48	1001.93	1002.61	1003.73
308.15 K	995.406	996.864	997.447	998.889	999.542	1000.66
318.15 K	991.616	993.071	993.654	995.086	995.747	996.868

CC(=O)[O-].[Na+] [sodium ethanoate] + O
mass density [kg/m3]
Details	288.15 K	298.15 K	308.15 K	318.15 K
m1 = 0.1	1003.46	1001.31	998.243	994.384
m1 = 0.25	1009.6	1007.39	1004.27	1000.35
m1 = 0.5	1019.38	1017.07	1013.89	1009.85
m1 = 1	1037.22	1034.76	1031.54	1027.23

CC(=O)[O-].CC(=O)[O-].[Mg+2] [magnesium acetate] + O
mass density [kg/m3]
Details	288.15 K	298.15 K	308.15 K	318.15 K
m1 = 0.1	1007.01	1004.9	1001.84	998.062
m1 = 0.25	1018.2	1016.05	1012.89	1009.15
m1 = 0.5	1035.44	1033.15	1030.05	1026.24
m1 = 1	1064.68	1061.74	1059.65	1055.19

O [water] + CC(=O)[O-].[Na+]
Details	mass density [kg/m3]
308.15 K, m2 = 0	994.063

NCCCCCC(=O)O [6-aminohexanoic acid] + O
mass density [kg/m3]
Details	m1 = 0.05814	m1 = 0.09073	m1 = 0.1798	m1 = 0.1945	m1 = 0.267	m1 = 0.3522
288.15 K	1000.76	1001.66	1004.09	1004.48	1006.41	1008.64
298.15 K	998.622	999.493	1001.84	1002.22	1004.08	1006.23
308.15 K	995.592	996.454	998.775	999.147	1000.99	1003.12
318.15 K	991.793	992.649	994.956	995.328	997.158	999.27
